Residues, ends and D or L forms follow the SMILES beside them. *: point of attachment. Cbz = O=C(OCc1ccccc1)*
Compound | melting point
Cc1cn(CCC(=O)O)c(=O)[nH]c1=O | 118 to 121 °C
CC(C)c1cccc(C(C)C)c1N=C(Nc1c(C(C)C)cccc1C(C)C)ON=C1CCCCC1 | 150 to 152 °C
CCCCCCOc1c(OC)cc(C(=O)NN=C2CCCCC2=Cc2ccccc2)cc1OC | 158 to 160 °C
CCOC(=O)Cc1nc(-c2ccccc2)n(C)n1 | 82 to 83 °C
CC(C)C(NS(=O)(=O)c1ccc(-c2ccc([N+](=O)[O-])cc2)cc1)C(=O)O (stereo not drawn) | 165 to 167 °C
c1ccc(OCCn2ccnc2)cc1 | 88 °C
CC(C(=O)Oc1ccc([N+](=O)[O-])cc1)c1ccccc1 (stereo not drawn) | 55 to 56.5 °C
COC(=O)C(=CN(C)C)c1sc(Cl)nc1COc1ccccc1 | 114 °C
c1ccc(-c2cc(-c3ccc(-c4nccc5ccccc45)cc3)cc(-c3nc(-c4ccccc4)nc(-c4ccccc4)n3)c2)cc1 | 280 °C
C[C@H](N[C@H]1CC[C@@H](c2ccccc2)CC1)[C@@H](O)c1ccc(O)cc1 | 199 to 212 °C
CCOC(=O)c1cnc2cc(C(C)(C)C)ccc2c1O | 279 to 281 °C
O=c1ccc(C(F)(F)F)cn1-c1ccc(NCCCN2CCCCC2)cc1Cl | 112 to 115 °C
CCN(CC)c1nc2ccccc2n2cnnc12 | 117 to 119 °C
CC(C)(C)OC(=O)N1CCc2ccc(C(=O)NC3COCCn4c3nc(-c3ccncn3)cc4=O)cc2C1 (racemic) | 252 to 254 °C
O=C(O)c1ccc2ccccc2c1OCC(F)(F)F | 172 °C
CCOC(=O)C(=O)c1ccc(C)[nH]1 | 72 to 74 °C
CCCCCCCCCCCCCCCCNc1ccc(C(=O)NS(=O)(=O)c2ccc([N+](=O)[O-])cc2)cc1 | 130 to 131 °C
CC(C)NCC(O)COc1ccccc1-c1ccc(=O)[nH]n1 (stereo not drawn) | 150 to 152 °C
NC(=O)N1c2ccccc2CC(O)c2ccccc21 (stereo not drawn) | 70.4 to 101 °C
Cc1c(C)c2c(c(C)c1N)CC(C)(CN1CCC(c3ccccc3)CC1)O2 (stereo not drawn) | 112 to 113 °C
Cc1cc(C)cc(Oc2c(CCl)c(C)[nH]c(=O)c2I)c1 | 256 to 258 °C
CSC(NCCSCc1[nH]cnc1C)=C(C#N)C(N)=O | 137 to 139 °C

Compound | melting point
COc1nc(NC(=O)NS(=O)(=O)c2cc(Cl)ccc2C(=O)OC(C)C)nc(C(F)(F)F)n1 | 160 to 163 °C
CN(C)CCc1c(C(=O)O)[nH]c2ccc(C[C@H]3COC(=O)N3)cc12 | 230 °C
CC(C)(C)OC(=O)N1CCn2ccc(C#N)c2C1 | 97 °C
Fc1ccc(N=Cc2ccccc2)c(F)c1 | 51 to 52 °C
COCCCOc1cc(CC(CC2C(OC(=O)OC(C)(C)C)CC(C(C)(C)O)C(=O)N2C(=O)OC(C)(C)C)C(C)C)ccc1OC (stereo not drawn) | 118 to 119 °C
CCOC(=O)c1cc(CN)c[nH]1 | 78 to 79 °C
OCCN1CCN(C2=Nc3cc(F)ccc3Nc3ccsc32)CC1 | 205 to 210 °C
CC1(C)CC(N)c2cc(OCc3ccccc3)ccc2O1 (stereo not drawn) | 86 to 88 °C
CCNC1CCc2[nH]c3ccc(OCc4ccccc4)cc3c2C1 (stereo not drawn) | 117 to 118 °C
Cc1cc2nc(SCC(F)(F)F)[nH]c2cc1C | 150 to 163 °C
COC(=O)CCCCC(=O)c1cccc(F)c1O | 59 to 60 °C
CC(NC=O)c1ccccc1C(F)(F)C(F)(F)c1ccccc1 (stereo not drawn) | 103 to 105 °C
O=c1c2ccccc2oc2cc(-c3nnn[nH]3)ccc12 | 296 °C
CC(=O)NN=C(C)c1ccncc1 | 178 °C
CCN(C(=O)c1ccc2nonc2c1)C1CCOCC1 | 102 to 104 °C
COC(=O)C1=C(C)NC(C)=C(C(=O)OCCN2CCCC2=O)C1c1cccc([N+](=O)[O-])c1 (stereo not drawn) | 112 to 114 °C
CC(=O)N1c2ccccc2[C@H](Nc2ccccc2C(=O)O)C[C@@H]1C (relative stereo) | 122 to 123 °C
COCOc1ccc(C=C2CCCC(=Cc3ccc(OCOC)c(OC)c3)C2=O)cc1OC | 73 to 75 °C
CS(=O)(=O)CC(=O)N[C@H]1CC[C@H](CCN2CCC(c3cccc4c3CCO4)CC2)CC1 | 211 °C
CCCCCc1c(C(C)C)nc(C(C)C)c(CO)c1-c1ccc(Cl)cc1 | 83 to 85 °C
COC(=O)Cc1ccccc1Cc1ccccc1C(=O)O | 121 to 123 °C
Oc1ccc(C2COC(c3c(F)cccc3F)=N2)cc1 (stereo not drawn) | 145 to 147 °C

Compound | melting point
CSC=CC(C)(C)C(=O)Nc1ccc(Cl)cc1 | 105 to 106 °C
FC(F)(F)n1cc(Br)cn1 | 4 °C
CCOC(=O)N1CCC(O)(c2cc(F)c(Br)cc2F)CC1 | 133 to 136 °C
O=C1CC(c2ccc(Cl)cc2)ON1CC(O)CN1CCOCC1 (stereo not drawn) | 121 to 123 °C
O=[N+]([O-])c1cccnc1N1CCNCC1 | 79 to 82 °C
CCCCCCCCCCCCCCCCCCON1C(=O)c2ccccc2C1=O | 82 to 88 °C
Nc1ccc(CCc2ccc(OCc3ccccc3)c(OCc3ccccc3)c2)cc1 | 97 to 101 °C
CC(C)(C)CC(C)(C)c1ccc(Nc2ccc(Cc3ccc(Nc4ccc(C(C)(C)CC(C)(C)C)cc4)c4ccccc34)c3ccccc23)cc1 | 80 °C
CCCCc1ncc(/C=C(\Cc2cccs2)c2nnn[nH]2)n1Cc1ccccc1[N+](=O)[O-] | 231 to 234 °C
O=C1CN(C(=O)Cl)C(c2ccccc2)c2cc(Cl)ccc2N1 (stereo not drawn) | 181 to 184 °C
COC(=O)/C(O)=C1/C(=O)c2ccc(OC)cc2CC1C (stereo not drawn) | 89 to 89.6 °C
CCCCNS(=O)(=O)C[C@@H](O)C(O)[C@@H](CC1CCCCC1)NC(=O)[C@@H](N)CC(C)C (relative stereo) | 99 to 109 °C
Cc1ccc(N(C)C(=O)Cc2ccccc2)s1 | 77 to 79 °C
S=C=Nc1ccc2nc(Oc3ccccc3)sc2c1 | 118 to 119 °C
CCOC(=O)c1ccc(C(F)(F)F)cc1N | 42 to 43 °C
CC(O)=C(C#N)C(=O)Nc1ccc(Br)cc1Br | 181 °C
CCCCCC(C)C(C)c1cc(O)c2c3c(c(=O)oc2c1)CSC3 (stereo not drawn) | 165 to 166 °C
CCN(C(=O)Nc1ccc(OC(F)(F)F)cc1)C1Cc2ccc(SC(C)(C)C(=O)O)cc2C1 (stereo not drawn) | 73 to 77 °C
O=CNC[C@H]1CN(c2ccc(N3CCOCC3)c(F)c2)C(=O)O1 | 44 to 47 °C
CCCc1nc2c(N)nc3cccnc3c2n1CCCCN(OC)C(=O)NC(C)C | 161 to 162 °C
COC(=O)[C@H](Cc1c[nH]cn1)NC(=O)[C@H](Cc1ccccc1)NC(=O)[C@H](Cc1ccccc1)NC(=O)OCc1ccccc1 (Cbz-Phe-Phe-His-OMe) | 204 to 206 °C

The next lines start with the values.

melting point | Compound
227 to 228 °C | CC(C)n1nc(-c2cnc(N)nc2-c2ccccc2Cl)ccc1=O
123 to 125 °C | CCC(CC)N(Cc1ccc(C#N)cc1)S(=O)(=O)c1ccc(Cl)cc1
90 to 107 °C | CCOC(=O)Cn1cnc2c(Cl)nc(NC(=O)c3ccc(C4CCCCC4)cc3)nc21
89 to 90 °C | CCOC(=O)Cc1c(C)nn(-c2ccccn2)c1-c1ccccc1
256 °C | O=C(Nc1ccc2ccc(Cl)nc2n1)c1ccc2c(c1)OCO2
178 to 180 °C | CCCOc1ccccc1-c1nc2cc3ncn(CC(C)C4CCCCC4)c3cc2c(=O)[nH]1 (stereo not drawn)
128 to 130 °C | O=C(O)Cn1cc(Cc2nc3c(F)c(F)cc(F)c3s2)c2cc(Oc3ccccc3)ccc21
123 to 130 °C | Nc1ncccc1OCc1c(F)cccc1Cl
147 to 150 °C | CC(=O)OI(OC(C)=O)c1ccc(-c2ccc(Cl)cc2)cc1
285 to 290 °C | CN(C)c1ccc(C(=O)NC(=O)Nc2ccc3c(c2)NC(=O)/C3=C\c2ccc[nH]2)cc1
125 to 127 °C | CCN(CC)CCOc1ccc(C(=O)c2c(-c3ccccc3)oc3ccccc23)cc1
169 to 170 °C | O=C(O)Cn1ncc(-c2ccccc2)c1-c1ccccc1
228 to 230 °C | COC(=O)c1ccc2c(c1)-c1c(c(C(=O)C(C#N)C(=O)Nc3ccccc3)nn1-c1ccccc1)CS2 (stereo not drawn)
129 to 131 °C | COc1ccnc2c1cc(C)n2Cc1ccccc1
106 to 108 °C | CCN(CC)CCOc1ccc(Nc2ncc3c(n2)N(c2ccccc2)C(=O)N(c2ccc(Cl)cc2Cl)C3)cc1
205 to 206 °C | CC1Cc2c(n(Cc3ccc(Cl)cc3)c3ccc(F)cc23)C(CC(=O)O)C1 (stereo not drawn)
177 to 178 °C | O=C(NCCCn1cc(Cn2ccnc2)c2ccccc21)Nc1ccccc1

melting point | Compound
170 to 172 °C | C#Cc1cccc(-c2nccc3nc(N)nn23)c1
135 to 150 °C | Nc1cccc(-c2ccc(OCC3CCN3)c3ccccc23)n1 (stereo not drawn)
235 °C | CCCC(=O)Nc1n[nH]c2cc(-c3ccc(O)cc3)ccc12
116 to 120 °C | Cn1ccnc1Sc1cc(Cl)ccc1N
180 °C | COc1ccc(N2CCOCC2)c2sc(C(=O)NCC(=O)c3sc4ccccc4c3C)nc12
209 to 210 °C | CN1CCC(NC(=O)c2cccc3nc(-c4ccccc4)oc23)CC1
135 to 136 °C | CC(=O)c1ccc(Oc2ccc([N+](=O)[O-])cc2C#N)cc1
88 to 89 °C | CC(C)(C)OC(=O)N1CCc2ccc(Nc3nc4c(-c5cc(C(F)(F)F)ccc5Cl)cccn4n3)cc2CC1
175 to 177 °C | CC(C)(C)OC(=O)N1CCN(c2nccc(Oc3ccc(NC(=O)c4cc(F)cc(N5CCCCC5)c4)c4ccccc34)n2)CC1
229 °C | CC(C)NS(=O)(=O)c1cccc(NC(=O)c2cnn3c(C(F)F)cc(-c4ccc(C(F)(F)F)cc4)nc23)c1
> 70 °C | CCCCc1nn2c(-c3ccccc3)cnc2n1Cc1ccc(-c2ccccc2-c2nnn[nH]2)cc1
95 to 110 °C | CC(=O)C(CC=Cc1ccccc1Cl)(CCC(=O)O)c1ccccc1 (stereo not drawn)
96 to 97 °C | COC(=O)c1ccc(Cl)cc1NC(=O)Cc1ccsc1
89 to 90 °C | COc1cccc(C(C)NC(=O)CCc2cnoc2-c2ccc(Cl)cc2)c1 (stereo not drawn)
145 to 146 °C | COC(=O)c1cc(-c2nc(COc3ccc(CO)cc3OC)c(C)o2)ccc1C
199 to 200 °C | N#CCCNC(=O)c1cccc(-c2cc3c(ccn3Cc3ccc(Cl)cc3Cl)cn2)c1
